According to PubChem BioAssay (NCI):
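A five-concentration, 48-hour dose response in 96-well plates underlies each endpoint, interpolated linearly between surrounding concentrations. GI50: concentration for 50% inhibition of growth. TGI marks complete inhibition of growth.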

Columns and labels:
Experiment in all cases: growth of human tumour cells (NCI), 48 h
786-0 renal = tested on: 786-0 renal
A498 renal = tested on: A498 renal
A549 NSCLC = tested on: A549 NSCLC
ACHN renal = tested on: ACHN renal
BT-549 breast = tested on: BT-549 breast
CAKI-1 renal = tested on: CAKI-1 renal
CCRF-CEM leukemia = tested on: CCRF-CEM leukemia
COLO 205 colon = tested on: COLO 205 colon
DU-145 prostate = tested on: DU-145 prostate
EKVX NSCLC = tested on: EKVX NSCLC
HCC-2998 colon = tested on: HCC-2998 colon
HCT-116 colon = tested on: HCT-116 colon
HCT-15 colon = tested on: HCT-15 colon
HL-60(TB) leukemia = tested on: HL-60(TB) leukemia
HOP-62 NSCLC = tested on: HOP-62 NSCLC
HOP-92 NSCLC = tested on: HOP-92 NSCLC
HS 578T breast = tested on: HS 578T breast
HT29 colon = tested on: HT29 colon
IGROV1 ovarian = tested on: IGROV1 ovarian
K-562 leukemia = tested on: K-562 leukemia
KM12 colon = tested on: KM12 colon
M14 melanoma = tested on: M14 melanoma
MALME-3M melanoma = tested on: MALME-3M melanoma
MCF7 breast = tested on: MCF7 breast
MDA-MB-231 breast = tested on: MDA-MB-231 breast
MDA-MB-435 = tested on: MDA-MB-435
MOLT-4 leukemia = tested on: MOLT-4 leukemia
NCI-H226 lung = tested on: NCI-H226 lung
NCI-H23 lung = tested on: NCI-H23 lung
NCI-H460 lung = tested on: NCI-H460 lung
NCI-H522 lung = tested on: NCI-H522 lung
NCI/ADR-RES ovarian = tested on: NCI/ADR-RES ovarian
OVCAR-3 ovarian = tested on: OVCAR-3 ovarian
OVCAR-4 ovarian = tested on: OVCAR-4 ovarian
OVCAR-5 ovarian = tested on: OVCAR-5 ovarian
OVCAR-8 ovarian = tested on: OVCAR-8 ovarian
PC-3 prostate = tested on: PC-3 prostate
RPMI-8226 leukemia = tested on: RPMI-8226 leukemia
RXF 393 renal = tested on: RXF 393 renal
SF-268 CNS = tested on: SF-268 CNS
SF-295 CNS = tested on: SF-295 CNS
SF-539 CNS = tested on: SF-539 CNS
SK-MEL-2 melanoma = tested on: SK-MEL-2 melanoma
SK-MEL-28 melanoma = tested on: SK-MEL-28 melanoma
SK-MEL-5 melanoma = tested on: SK-MEL-5 melanoma
SK-OV-3 ovarian = tested on: SK-OV-3 ovarian
SN12C renal = tested on: SN12C renal
SNB-19 CNS = tested on: SNB-19 CNS
SNB-75 CNS = tested on: SNB-75 CNS
SR leukemia = tested on: SR leukemia
SW-620 colon = tested on: SW-620 colon
T-47D breast = tested on: T-47D breast
TK-10 renal = tested on: TK-10 renal
U251 CNS = tested on: U251 CNS
UACC-257 melanoma = tested on: UACC-257 melanoma
UACC-62 melanoma = tested on: UACC-62 melanoma
UO-31 renal = tested on: UO-31 renal

## CN1CCN(Cc2ccc(NC(=O)c3cnc(F)c(C#Cc4cnc(N)c5ncccc45)c3)cc2C(F)(F)F)CC1
786-0 renal
  GI50: 448 nM
  TGI: 7860 nM
A498 renal
  GI50: 161 nM
  TGI: 963 nM
A549 NSCLC
  GI50: 321 nM
  TGI: 11900 nM
ACHN renal
  GI50: 119 nM
  TGI: 5270 nM
BT-549 breast
  GI50: 1110 nM
  TGI: 9830 nM
CAKI-1 renal
  GI50: 110 nM
  TGI: 877 nM
CCRF-CEM leukemia
  GI50: 188 nM
  TGI: 20800 nM
COLO 205 colon
  GI50: 190 nM
  TGI: 5330 nM
DU-145 prostate
  GI50: 273 nM
  TGI: 7950 nM
EKVX NSCLC
  GI50: 1530 nM
  TGI: 11300 nM
HCC-2998 colon
  GI50: 963 nM
  TGI: 9210 nM
HCT-116 colon
  GI50: 150 nM
  TGI: 2990 nM
HCT-15 colon
  GI50: 184 nM
  TGI: 7530 nM
HL-60(TB) leukemia
  GI50: 195 nM
  TGI: 4410 nM
HOP-62 NSCLC
  GI50: 387 nM
  TGI: 9900 nM
HOP-92 NSCLC
  GI50: 133 nM
  TGI: 1170 nM
HS 578T breast
  GI50: 183 nM
  TGI: 2110 nM
HT29 colon
  GI50: 143 nM
  TGI: 6020 nM
IGROV1 ovarian
  GI50: 139 nM
  TGI: 7480 nM
K-562 leukemia
  GI50: 5 nM
  TGI: 675 nM
KM12 colon
  GI50: 6.61 nM
  TGI: 6050 nM
M14 melanoma
  GI50: 74.6 nM
  TGI: 601 nM
MALME-3M melanoma
  GI50: 50.8 nM
  TGI: 234 nM
MCF7 breast
  GI50: 309 nM
  TGI: 5760 nM
MDA-MB-231 breast
  GI50: 189 nM
  TGI: 1140 nM
MDA-MB-435
  GI50: 141 nM
  TGI: 6090 nM
MOLT-4 leukemia
  GI50: 182 nM
  TGI: 8640 nM
NCI-H226 lung
  GI50: 121 nM
  TGI: 1940 nM
NCI-H23 lung
  GI50: 485 nM
  TGI: 9590 nM
NCI-H460 lung
  GI50: 182 nM
  TGI: 6490 nM
NCI-H522 lung
  GI50: 204 nM
  TGI: 9960 nM
NCI/ADR-RES ovarian
  GI50: 480 nM
  TGI: 12500 nM
OVCAR-3 ovarian
  GI50: 516 nM
  TGI: 9580 nM
OVCAR-4 ovarian
  GI50: 195 nM
  TGI: 8150 nM
OVCAR-5 ovarian
  GI50: 417 nM
  TGI: 9270 nM
OVCAR-8 ovarian
  GI50: 425 nM
  TGI: 22200 nM
PC-3 prostate
  GI50: 320 nM
  TGI: 10100 nM
RPMI-8226 leukemia
  GI50: 332 nM
  TGI: 22700 nM
RXF 393 renal
  GI50: 122 nM
  TGI: 567 nM
SF-268 CNS
  GI50: 324 nM
  TGI: 6350 nM
SF-295 CNS
  GI50: 294 nM
  TGI: 9240 nM
SF-539 CNS
  GI50: 199 nM
  TGI: 2830 nM
SK-MEL-2 melanoma
  GI50: 114 nM
  TGI: 451 nM
SK-MEL-28 melanoma
  GI50: 126 nM
  TGI: 804 nM
SK-MEL-5 melanoma
  GI50: 735 nM
  TGI: 5050 nM
SK-OV-3 ovarian
  GI50: 263 nM
  TGI: 8700 nM
SN12C renal
  GI50: 161 nM
  TGI: 5570 nM
SNB-19 CNS
  GI50: 1940 nM
  TGI: 11900 nM
SNB-75 CNS
  GI50: 643 nM
  TGI: 6470 nM
SR leukemia
  GI50: 149 nM
  TGI: 50000 nM
SW-620 colon
  GI50: 226 nM
  TGI: 5820 nM
T-47D breast
  GI50: 983 nM
  TGI: 22300 nM
TK-10 renal
  GI50: 679 nM
  TGI: 11600 nM
U251 CNS
  GI50: 252 nM
  TGI: 13200 nM
UACC-257 melanoma
  GI50: 339 nM
  TGI: 6510 nM
UACC-62 melanoma
  GI50: 103 nM
  TGI: 586 nM
UO-31 renal
  GI50: 140 nM
  TGI: 1160 nM
